Assay results published in patent publication US6794415B2, “Biphenyl compounds and their use as oestrogenic agents” (Aventis Pharma S.A., priority 1996, dated 2004).

Key:
[1] = target: T1, recombinant human oestrogen receptor (HOR) (Homo sapiens, UniProt P03372); assay: Human oestrogen receptor (HOR): displacement of tritiated oestradiol, relative bond affinity; type: binding; conditions: oestradiol = 100, RBA=100(CH)/(CX); for HOR long t relative bond affinity (RBA): incubation 0° C. for 24 hours (long t); for HOR short t relative bond affinity (RBA): incubation 0° C. for 3 hours (short t)
T1 construct: made in house; host or cells: SF9 insect cells (ATCC CRL1711), baculovirus
T1 sequence (P03372 1-595): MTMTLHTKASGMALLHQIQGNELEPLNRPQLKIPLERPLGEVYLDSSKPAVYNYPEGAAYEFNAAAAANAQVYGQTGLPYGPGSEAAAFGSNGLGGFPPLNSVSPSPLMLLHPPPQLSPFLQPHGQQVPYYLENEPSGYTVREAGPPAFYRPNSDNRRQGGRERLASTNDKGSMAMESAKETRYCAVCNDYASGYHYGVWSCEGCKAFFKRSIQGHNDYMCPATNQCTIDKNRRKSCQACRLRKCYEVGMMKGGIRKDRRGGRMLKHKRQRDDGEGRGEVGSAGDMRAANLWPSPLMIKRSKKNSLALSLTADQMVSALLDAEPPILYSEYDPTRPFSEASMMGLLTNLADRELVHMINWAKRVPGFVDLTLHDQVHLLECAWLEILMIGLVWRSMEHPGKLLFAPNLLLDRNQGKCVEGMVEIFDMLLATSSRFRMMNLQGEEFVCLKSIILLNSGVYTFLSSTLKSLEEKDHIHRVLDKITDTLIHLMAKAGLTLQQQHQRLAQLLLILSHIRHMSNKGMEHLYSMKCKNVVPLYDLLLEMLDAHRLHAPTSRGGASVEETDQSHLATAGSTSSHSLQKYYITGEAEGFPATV
Description: Human Oestrogen Receptor (HOR)
A cytosolic extract of SF9 cells containing the recombinant human oestrogen receptor is obtained by overexpression in an insect-Baculovirus cell system, according to the general methodology described by N. R. WEBB et al. (Journal of Methods in Cell and Molecular Biology, (1990) Vol.2 No. 4, 173-188) and the application of which is described for the expression of human hormonal receptors, for example the human glucocorticoid receptor (G. SRINIVASAN et al. Molecular Endocrinology (1990) vol 4 No. 2 209-216).
The BaculoGold Transfection Kit (PharMingen, reference 21000K) is used to generate the recombinant baculovirus containing the cDNA fragment described in the expression vector HEGO by L. TORA et al. (The EMBO Journal (1989) vol. 8 No. 7 1981-1986), containing the coding region for the wild-type human oestrogen receptor with a glycine in position 400.
The recombinant virus thus obtained is used to express the oestrogen receptor in the SF9 insect cells (ATCC CRL1711), according to the known methodology mentioned previously.
2*10^7 SF9 cells are cultured in a 175 cm^2 “Falcon” flask in the TNM-FH “SIGMA” medium supplemented by 10% of foetal calf serum (FCS) and by 50 microgram/ml of gentamycin. After infection then incubation at 27° C. for 40 to 42 hours, the cells are lysed in 1 ml of lysis buffer (Tris 20 mM-HCl pH8, EDTA 0.5 mM, DTT 2 mM, Glycerol 20%, KCl 400 mM) with a freezing-thawing cycle which is repeated another two times. The supernatant, containing the recombinant human oestrogen receptor is kept in liquid nitrogen by 0.5 ml doses.
The supernatant is incubated at 0° C. for 24 hours (long t) or 3 hours (short t) with a constant concentration (T) of tritiated oestradiol in the presence of increasing concentrations of either unlabelled oestradiol (0-1000×10^−9M), or of unlabelled product to be tested (0-25000×10^−9M). The concentration of bound tritiated oestradiol (B) is then measured in each incubate by the technique of adsorption with carbon dextran.
(§1) Calculation of the Relative Bond Affinity (RBA):
(§2) The following two curves are drawn: the percentage of bound tritiated hormone 100×B/B0 as a function of the logarithm of the concentration of unlabelled reference hormone or as a function of the concentration of unlabelled test product.
(§3) The straight line of the equation
(§4) B0=concentration of bound tritiated hormone in the absence of any unlabelled product.
(§5) B=concentration of bound tritiated hormone in the presence of a concentration X of unlabelled product.
(§6) B min=concentration of bound tritiated hormone for an incubation of this tritiated hormone at a concentration (T) in the presence of a large excess of unlabelled reference hormone (1000×10^−9M) for the human receptor.
(§7) The intersections of the straight line I50 and the curves allow the evaluation of the concentrations of unlabelled reference hormone (CH) and of the unlabelled test product (CX) which inhibit by 50% the binding of the tritiated hormone on the receptor.
(§8) The relative bond affinity (RBA) of the test product is calculated by the equation: RBA=100(CH)/(CX).

[2] = target: T2, Oestrogen Receptor of a Rat's Uterus (ROR) (Rattus norvegicus, UniProt P06211); assay: Oestrogen receptor of a rat's uterus (ROR): displacement of tritiated oestradiol, relative bond affinity; type: binding; conditions: oestradiol = 100; RBA=100(CH)/(CX); rat uterus cytosol, incubation 0° C. for 24 hours
T2 construct: the uteri are removed, then homogenized at 0° C; from tissue; host or cells: rat uterus cytosol (ultracentrifugation supernatant of homogenate)
T2 sequence (P06211 1-600): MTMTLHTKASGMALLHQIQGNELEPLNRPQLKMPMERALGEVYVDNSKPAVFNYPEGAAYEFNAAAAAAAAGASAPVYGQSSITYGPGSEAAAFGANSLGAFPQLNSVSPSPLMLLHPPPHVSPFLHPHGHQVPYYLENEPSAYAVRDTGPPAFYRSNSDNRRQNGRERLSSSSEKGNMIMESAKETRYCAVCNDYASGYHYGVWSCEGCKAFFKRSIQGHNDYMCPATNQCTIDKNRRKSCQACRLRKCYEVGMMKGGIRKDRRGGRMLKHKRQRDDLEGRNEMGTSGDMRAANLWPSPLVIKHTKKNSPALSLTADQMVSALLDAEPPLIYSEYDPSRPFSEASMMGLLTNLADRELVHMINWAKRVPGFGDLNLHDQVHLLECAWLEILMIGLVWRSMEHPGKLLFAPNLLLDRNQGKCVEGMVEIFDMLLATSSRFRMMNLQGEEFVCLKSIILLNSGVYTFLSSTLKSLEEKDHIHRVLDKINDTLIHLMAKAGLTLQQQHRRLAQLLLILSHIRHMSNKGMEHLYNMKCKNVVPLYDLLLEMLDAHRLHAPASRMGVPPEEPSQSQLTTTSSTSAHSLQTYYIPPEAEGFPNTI
Method: Oestrogen Receptor of a Rat's Uterus (ROR):
Female rats of 280-300 g and castrated 24 hours beforehand, are sacrificed, the uteri are removed, then homogenized at 0° C., using a teflon-glass Potter in a buffered solution BS (10 mM Tris, 0.25 M saccharose, HCl pH 7.4) (1 g of tissue per 10 ml of BS). The homogenate is then ultracentrifuged (209,000 g×30mn.) at 0° C. The supernatant aliquots thus obtained are incubated at 0° C. for 24 hours, with a constant concentration (2.5 10^−9M) of tritiated oestrodiol in the presence of increasing concentrations either of unlabelled oestradiol (0-1000×10^−9M), or of unlabelled product to be tested […]. The concentration of bound tritiated oestradiol (B) is then measured in each incubate by the carbon-dextran adsorption technique.
as §1, §2, §3, §4, §5, §6, §7, §8

HOR long t relative bond affinity (RBA) [1] | ROR relative bond affinity (RBA) [2] | HOR short t relative bond affinity (RBA) [1] | SMILES
5.5 | – | – | O=Cc1cc(Br)c(-c2ccc(O)cc2)c(Br)c1 [Example 1, 2,6-dibromo-4′-hydroxy-(1,1′-biphenyl)-4-carboxaldehyde]
74 | 12.5 | 425 | OCc1cc(Br)c(-c2ccc(O)cc2)c(Br)c1 [Example 2, 2,6-dibromo-4′-hydroxy-(1,1′-biphenyl)-4-methanol]
22 | 4 | – | CC(C)c1cc(CO)cc(Cl)c1-c1ccc(O)cc1 [Example 4, 2-chloro-4′-hydroxy-6-(1-methylethyl)-(1,1′-biphenyl)-4-methanol]
4.5 | – | – | CCc1cc(C(C)C)c(-c2ccc(O)cc2)cc1C [Example 6, 4′-ethyl-5′-methyl-2′-(1-methylethyl)-(1,1′-biphenyl)-4-ol]
50 | 9.5 | – | OCc1cc(Cl)c(-c2ccc(O)cc2)c(C(F)(F)F)c1 [Example 7, 2-chloro-4′-hydroxy-6-(trifluoromethyl)-(1,1′-biphenyl)-4-methanol]
7.5 | 0.8 | 24 | Cc1c(C(C)O)cc(C(C)C)c(-c2ccc(O)cc2)c1Cl (stereo not drawn) [Example 13, 1-[2-chloro-4′-hydroxy-3-methyl-6-(1-methylethyl)-(1,1′-biphenyl-4-yl)]-ethanol]
34 | 5 | – | O=[N+]([O-])c1cc(CO)cc(Br)c1-c1ccc(O)cc1 [Example 18, 2-bromo-4′-hydroxy-6-nitro-(1,1′-biphenyl)-4-methanol]
35 | 3 | 104 | OCc1cc(Cl)c(-c2ccc(O)cc2)c(Cl)c1 [Example 24, 2,6-dichloro-4′-hydroxy-(1,1′-biphenyl)-4-methanol]
5 | – | 12 | O=Cc1cc(Cl)c(-c2ccc(O)cc2)c(Cl)c1 [Example 25, 2,6-dichloro-4′-hydroxy-(1,1′-biphenyl)-4-carboxaldehyde]
8 | 2 | 33 | OCc1ccc(-c2ccc(O)cc2)c(C(F)(F)F)c1 [Example 28, 4′-hydroxy-2-trifluoromethyl-(1,1′-biphenyl)-4-methanol]
0.6 | 0.15 | – | Cc1ccc(-c2ccc(O)cc2)c(C(F)(F)F)c1 [Example 29, 4′-methyl-2′-trifluoromethyl-(1,1′-biphenyl)-4-ol]
0.07 | 8 | – | OCc1cc(Cl)c(-c2ccc(O)c(Cc3ccccc3)c2)c(Cl)c1 [Example 36, 2,6-dichloro-4′-hydroxy-5′-(phenylmethyl)-(1,1′-biphenyl)-4-methanol]

SMILES | HOR long t relative bond affinity (RBA) [1] | ROR relative bond affinity (RBA) [2] | HOR short t relative bond affinity (RBA) [1]
OCc1c(Cl)c(Cl)c(-c2ccc(O)cc2)c(Cl)c1Cl [Example 26, 4′-hydroxy-2.3,5,6-tetrachloro-(1,1′-biphenyl)-4-methanol] | 5.5 | – | –
O=[N+]([O-])c1cc(CO)cc([N+](=O)[O-])c1-c1ccc(O)cc1 [Example 30, 2,6-dinitro-4′-hydroxy-(1,1′-biphenyl)-4-methanol] | 5 | 2 | 24
